Experimental data published in PubChem BioAssay AID328 (DTP/NCI, 2004).
“And” between values parts separate entries of the source, which are not always exact repeats. Equal values may be shown once. Toxic doses and inconclusive results are not listed. Starred links: 1 amine or outer side, 2 acyl side, 3 side chain; linkers in the order of their positions; H or OH if unused. Positions of bridges follow the written chain, without caps; N, C: chain ends. Non-standard residues stand in square brackets, D forms with d. Residues, ends and D or L forms follow the SMILES beside them. Chains are numbered I, II in the order given. Actinocin(1to9) = Cc1c2oc3c(C)ccc(C(=O)[*:2])c3nc-2c(C(=O)[*:1])c(N)c1=O; X2 = CC(=O)OC1CC(C)N([*:1])C1C(=O)[*:2]; X1 = CC1CC(=O)C(C(=O)[*:2])N1[*:1]; NMeV = CN[CH](C(=O)O)C(C)C; NMeA = CN[CH](C)C(=O)O; Sar = CNCC(=O)O

Test system: BDF1 mice, P388 leukemia ip, median survival T/C
Test: NCI In Vivo Anticancer Drug Screen. Data for tumor model P388 Leukemia (intraperitoneal) in B6D2F1 (BDF1) mice
Conditions: endpoint: median survival time, higher = longer survival
Method in brief: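 Steps: implant the tumour, treat one group with compound and another with vehicle, record survival, then divide treated by control.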

[1] = dose: 6.25 mg/kg/injection, schedule: Q04DX003 (ip), vehicle: Klucel (hydroxypropylcellulose) (HPC)
[2] = dose: 12.5 mg/kg/injection, schedule: Q04DX003 (ip), vehicle: Klucel (hydroxypropylcellulose) (HPC)
[3] = dose: 50.0 mg/kg/injection, schedule: Q01DX009 (ip), vehicle: saline with Tween-80
[4] = dose: 100.0 mg/kg/injection, schedule: Q01DX009 (ip), vehicle: saline with Tween-80
[5] = dose: 200.0 mg/kg/injection, schedule: Q01DX009 (ip), vehicle: saline with Tween-80
[6] = dose: 25.0 mg/kg/injection, schedule: Q01DX009 (ip), vehicle: saline with Tween-80
[7] = dose: 100.0 mg/kg/injection, schedule: Q04DX003 (ip), vehicle: saline with Tween-80
[8] = dose: 200.0 mg/kg/injection, schedule: Q04DX003 (ip), vehicle: saline with Tween-80
[9] = dose: 12.5 mg/kg/injection, schedule: Q01DX009 (ip), vehicle: saline with Tween-80

Structure (SMILES): CN(C)N=Nc1ccccc1
- T/C (dose: 31.25 mg/kg/injection, schedule: Q01DX009 (ip), vehicle: Klucel (hydroxypropylcellulose) (HPC)): 103 % of control
- T/C (dose: 82.0 mg/kg/injection, schedule: Q04DX003 (ip), vehicle: Klucel (hydroxypropylcellulose) (HPC)): 110 % of control
- T/C (dose: 125.0 mg/kg/injection, schedule: Q04DX003 (ip), vehicle: saline): 90 % of control

Structure (SMILES): O=C1C=C(Cl)C(=O)C(Cl)=C1
- T/C (dose: 3.0 mg/kg/injection, schedule: Q01DX009 (ip), vehicle: Klucel (hydroxypropylcellulose) (HPC)): 100 % of control
- T/C (dose: 6.0 mg/kg/injection, schedule: Q01DX009 (ip), vehicle: Klucel (hydroxypropylcellulose) (HPC)): 87 % of control
- T/C [1]: 95 % of control
- T/C [2]: 100 % of control

Structure (SMILES): CC1=NNC(=O)C1CCO (centres undefined)
- T/C (dose: 50.0 mg/kg/injection, schedule: Q01DX009 (ip), vehicle: Klucel (hydroxypropylcellulose) (HPC)): 86 % of control
- T/C (dose: 100.0 mg/kg/injection, schedule: Q01DX009 (ip), vehicle: Klucel (hydroxypropylcellulose) (HPC)): 104 % of control
- T/C (dose: 175.0 mg/kg/injection, schedule: Q01DX009 (ip), vehicle: Klucel (hydroxypropylcellulose) (HPC)): 90 % of control
- T/C (dose: 200.0 mg/kg/injection, schedule: Q01DX009 (ip), vehicle: Klucel (hydroxypropylcellulose) (HPC)): 122 % of control
- T/C (dose: 265.0 mg/kg/injection, schedule: Q01DX009 (ip), vehicle: Klucel (hydroxypropylcellulose) (HPC)): 104 % of control
- T/C (dose: 400.0 mg/kg/injection, schedule: Q01DX009 (ip), vehicle: Klucel (hydroxypropylcellulose) (HPC)): 95 % of control

Structure (SMILES): COc1cc(C=Nc2cc(Br)c(O)c(Br)c2)ccc1N(CCCl)CCCl
- T/C (dose: 3.5 mg/kg/injection, schedule: Q04DX003 (ip), vehicle: Klucel (hydroxypropylcellulose) (HPC)): 163 % of control
- T/C (dose: 5.44 mg/kg/injection, schedule: Q04DX003 (ip), vehicle: Klucel (hydroxypropylcellulose) (HPC)): 150 % of control
- T/C (dose: 6.2 mg/kg/injection, schedule: Q01DX009 (ip), vehicle: Klucel (hydroxypropylcellulose) (HPC)): 186 % of control
- T/C (dose: 8.16 mg/kg/injection, schedule: Q04DX003 (ip), vehicle: Klucel (hydroxypropylcellulose) (HPC)): 172 % of control
- T/C (dose: 9.37 mg/kg/injection, schedule: Q01DX009 (ip), vehicle: Klucel (hydroxypropylcellulose) (HPC)): 227 % of control and 259 % of control
- T/C (dose: 12.37 mg/kg/injection, schedule: Q04DX003 (ip), vehicle: Klucel (hydroxypropylcellulose) (HPC)): 272 % of control and 220 % of control
- T/C (dose: 14.0 mg/kg/injection, schedule: Q01DX009 (ip), vehicle: Klucel (hydroxypropylcellulose) (HPC)): 91 % of control
- T/C (dose: 18.75 mg/kg/injection, schedule: Q04DX003 (ip), vehicle: Klucel (hydroxypropylcellulose) (HPC)): 265 % of control and 268 % of control and 272 % of control
- T/C (dose: 28.12 mg/kg/injection, schedule: Q04DX003 (ip), vehicle: Klucel (hydroxypropylcellulose) (HPC)): 300 % of control
- T/C (dose: 37.5 mg/kg/injection, schedule: Q01DX009 (ip), vehicle: Klucel (hydroxypropylcellulose) (HPC)): 90 % of control
- T/C (dose: 37.5 mg/kg/injection, schedule: Q04DX003 (ip), vehicle: Klucel (hydroxypropylcellulose) (HPC)): 113 % of control

Structure (SMILES): CC(=O)OC1CC(C)N2C(=O)C(C(C)C)NC(=O)C(NC(=O)c3ccc(C)c4oc5c(C)c(=O)c(N)c(C(=O)NC6C(=O)NC(C(C)C)C(=O)N7C(C)CC(=O)C7C(=O)N(C)CC(=O)N(C)C(C)C(=O)OC6C)c-5nc34)C(C)OC(=O)C(C(C)C)N(C)C(=O)CN(C)C(=O)C12 (centres undefined) (I: TV[X1][Sar][NMeA] / II: TV[X2][Sar][NMeV]; ester I:1-I:C, II:1-II:C; linker I:N-II:N via Actinocin(1to9); configuration not given here)
- T/C (dose: 0.05 mg/kg/injection, schedule: Q01DX009 (ip), vehicle: saline + alcohol): 100 % of control
- T/C (dose: 0.1 mg/kg/injection, schedule: Q01DX009 (ip), vehicle: saline + alcohol): 117 % of control
- T/C (dose: 0.15 mg/kg/injection, schedule: Q04DX003 (ip), vehicle: saline + alcohol): 98 % of control
- T/C (dose: 0.3 mg/kg/injection, schedule: Q04DX003 (ip), vehicle: saline + alcohol): 113 % of control
- T/C (dose: 0.4 mg/kg/injection, schedule: Q01DX009 (ip), vehicle: saline + alcohol): 156 % of control
- T/C (dose: 0.8 mg/kg/injection, schedule: Q01DX009 (ip), vehicle: saline + alcohol): 189 % of control
- T/C (dose: 1.2 mg/kg/injection, schedule: Q04DX003 (ip), vehicle: saline + alcohol): 153 % of control
- T/C (dose: 2.4 mg/kg/injection, schedule: Q04DX003 (ip), vehicle: saline + alcohol): 202 % of control
- T/C (dose: 6.4 mg/kg/injection, schedule: Q01DX001 (ip), vehicle: saline + alcohol): 159 % of control

Structure (SMILES): O.O=C(O)O.O=C(O)O.O=C(O)O.[Zr]
- T/C (dose: 100.0 mg/kg/injection, schedule: Q01DX009 (ip), vehicle: saline): 96 % of control
- T/C (dose: 100.0 mg/kg/injection, schedule: Q04DX003 (ip), vehicle: saline): 100 % of control
- T/C (dose: 200.0 mg/kg/injection, schedule: Q01DX009 (ip), vehicle: saline): 96 % of control
- T/C (dose: 200.0 mg/kg/injection, schedule: Q04DX003 (ip), vehicle: saline): 100 % of control
- T/C (dose: 400.0 mg/kg/injection, schedule: Q01DX009 (ip), vehicle: saline): 96 % of control
- T/C (dose: 400.0 mg/kg/injection, schedule: Q04DX003 (ip), vehicle: saline): 95 % of control

Structure (SMILES): Nc1ccc2cc3ccc(N)cc3nc2c1
- T/C (dose: 25.0 mg/kg/injection, schedule: Q01DX009 (ip), vehicle: saline): 86 % of control

Structure (SMILES): CCCCN(CCCC)c1ccc([N+](=O)[O-])c2no[n+]([O-])c12
- T/C (dose: 15.0 mg/kg/injection, schedule: Q01DX009 (ip), vehicle: saline with Tween-80): 96 % of control
- T/C (dose: 30.0 mg/kg/injection, schedule: Q01DX009 (ip), vehicle: saline with Tween-80): 92 % of control
- T/C (dose: 60.0 mg/kg/injection, schedule: Q01DX009 (ip), vehicle: saline with Tween-80): 91 % of control

Structure (SMILES): CCOc1ccn(CC(=O)c2ccc(Cl)s2)c(=O)n1
- T/C [3]: 106 % of control
- T/C [4]: 113 % of control
- T/C [5]: 97 % of control
- T/C (dose: 400.0 mg/kg/injection, schedule: Q01DX009 (ip), vehicle: saline with Tween-80): 106 % of control

Structure (SMILES): C1CSCSC1
- T/C [1]: 100 % of control
- T/C [2]: 95 % of control
- T/C (dose: 25.0 mg/kg/injection, schedule: Q04DX003 (ip), vehicle: Klucel (hydroxypropylcellulose) (HPC)): 87 % of control

Structure (SMILES): NNC(=O)c1cccc(N)c1
- T/C [6]: 100 % of control
- T/C [3]: 90 % of control
- T/C [4]: 100 % of control

Structure (SMILES): CCN(CC)c1c(C)nnc2c(-c3ccccc3)nnn12
- T/C (dose: 50.0 mg/kg/injection, schedule: Q04DX003 (ip), vehicle: saline with Tween-80): 97 % of control
- T/C [7]: 100 % of control
- T/C [8]: 97 % of control

Structure (SMILES): O=C(Nc1ccc(-c2cn3ccccc3n2)cc1)c1cc(Br)ccc1O
- T/C [9]: 100 % of control
- T/C [6]: 91 % of control
- T/C [3]: 107 % of control

Structure (SMILES): O=c1nc(Oc2ccccc2)nc2ncccn12
- T/C [9]: 121 % of control

Structure (SMILES): O=c1cc[nH]c2cc(C(F)(F)F)ccc12
- T/C (dose: 100.0 mg/kg/injection, schedule: Q04DX003 (ip), vehicle: saline sonified): 100 % of control
- T/C (dose: 200.0 mg/kg/injection, schedule: Q04DX003 (ip), vehicle: saline sonified): 95 % of control

Structure (SMILES): CCOC(=O)c1c(C)cc(C)nc1[S][Sn]([Br])([Br])[S]c1nc(C)cc(C)c1C(=O)OCC
- T/C [3]: 97 % of control
- T/C [4]: 103 % of control
- T/C [5]: 106 % of control

Structure (SMILES): CC(O)C(=O)N1Cc2cc3ccccc3nc2C1 (centres undefined)
- T/C (dose: 50.0 mg/kg/injection, schedule: Q01DX001 (ip), vehicle: saline sonified): 95 % of control
- T/C (dose: 100.0 mg/kg/injection, schedule: Q01DX001 (ip), vehicle: saline sonified): 104 % of control
- T/C (dose: 200.0 mg/kg/injection, schedule: Q01DX001 (ip), vehicle: saline sonified): 95 % of control

Structure (SMILES): CC(C)(O)c1cccc(C(=O)O)c1Sc1ccccc1
- T/C (dose: 100.0 mg/kg/injection, schedule: Q01DX001 (ip), vehicle: saline with Tween-80): 100 % of control
- T/C (dose: 200.0 mg/kg/injection, schedule: Q01DX001 (ip), vehicle: saline with Tween-80): 95 % of control
- T/C (dose: 400.0 mg/kg/injection, schedule: Q01DX001 (ip), vehicle: saline with Tween-80): 101 % of control

Structure (SMILES): O=C(NC(CO)C(O)c1ccc([N+](=O)[O-])cc1)C(Cl)Cl (centres undefined)
- T/C [7]: 104 % of control
- T/C [8]: 100 % of control
- T/C (dose: 400.0 mg/kg/injection, schedule: Q04DX003 (ip), vehicle: saline with Tween-80): 109 % of control
